Data: ChEMBL document CHEMBL2424626, “Synthesis and antiproliferative activities of quebecol and its analogs” (Bioorg Med Chem Lett, 2013)

Key:
MCF7 [1] = assay: Antiproliferative activity against human MCF7 cells after 72 hrs; assay type: functional, cell-based
MCF7 [2] = assay: Antiproliferative activity against human MCF7 cells assessed as cell viability at 75 uM after 72 hrs relative to control; assay type: functional; details: MCF7, 72 h
HT-29 = assay: Antiproliferative activity against human HT-29 cells assessed as cell viability at 75 uM after 72 hrs relative to control; assay type: functional; details: HT-29, 72 h
SK-OV-3 = assay: Antiproliferative activity against human SKOV3 cells assessed as cell viability at 75 uM after 72 hrs relative to control; assay type: functional; details: SK-OV-3, 72 h
HeLa = assay: Antiproliferative activity against human HeLa cells assessed as cell viability at 75 uM after 72 hrs relative to control; assay type: functional

| SMILES | IC50 (MCF7 [1]; Homo sapiens, MCF7, 72 h) [µM] | IC50 (MCF7 [1]; mcf7) [µM] | inhibition at 75 µM (MCF7 [2]) [%] | inhibition at 75 µM (HT-29) [%] | inhibition at 75 µM (SK-OV-3) [%] | inhibition at 75 µM (HeLa) [%] |
| --- | --- | --- | --- | --- | --- | --- |
| COc1cc(C(CO)C(c2ccc(O)c(OC)c2)c2ccc(O)c(OC)c2)ccc1O (stereo in doubt) | 104 |  |  |  |  |  |
| COc1cc(C(CO)C(c2ccc(O)c(OC)c2)c2ccc(O)c(OC)c2)ccc1O (stereo in doubt; 9a) |  | 103 |  |  |  |  |
| OCC(c1ccccc1)C(c1ccc(O)cc1)c1ccc(O)cc1 (stereo not drawn) |  |  | 80 | 80 | 80 | 80 |
| CCOC(=O)C(c1ccc(O)c(OC)c1)C(c1ccc(O)cc1)c1ccc(O)cc1 (stereo not drawn) |  |  | 75 |  |  |  |
| CCOC(=O)C(c1ccc(OC)cc1)C(c1ccc(O)cc1)c1ccc(O)cc1 (stereo not drawn) |  |  | 75 |  |  |  |

Further lines, with some results ahead:

| IC50 (MCF7 [1]; Homo sapiens, MCF7, 72 h) [µM] | IC50 (MCF7 [1]; mcf7) [µM] | SMILES | inhibition at 75 µM (MCF7 [2]) [%] | inhibition at 75 µM (HT-29) [%] | inhibition at 75 µM (SK-OV-3) [%] | inhibition at 75 µM (HeLa) [%] |
| --- | --- | --- | --- | --- | --- | --- |
| 78.7 |  | CCOC(=O)C(c1ccc(C)cc1)C(c1ccc(O)cc1)c1ccc(O)cc1 (stereo not drawn) | 80 | 80 | 80 | 80 |
| 80.6 |  | CCOC(=O)C(c1ccccc1)C(c1ccc(O)cc1)c1ccc(O)cc1 (stereo not drawn) | 80 | 80 | 80 | 80 |
| 85.1 |  | CCOC(=O)C(c1cccc(OC)c1)C(c1ccc(O)cc1)c1ccc(O)cc1 (stereo not drawn) | 80 | 80 | 80 | 80 |
